Data from patent US12286442B2, “Methods and materials for increasing transcription factor eb polypeptide levels” (University of Pittsburgh—Of the Commonwealth System of …, priority 2019, dated 2025).

How the values were obtained:
BEAS-2B cells = experiment: Toxicity: compound concentration needed to induce greater than 50 percent of cell loss; type: cell-based, human; conditions: 18 hours incubation
Procedure, shortened: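 BEAS-2B cells stably expressing TFEB-EGFP treated with serial compound dilutions for 18 h, then PFA-fixed, DAPI-stained and imaged. Toxicity scored as the concentration causing >50% cell loss, binned as ≥25 μM, <25 and >1 μM, or ≤1 μM ("+++").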

TFEB = experiment: High content screen measuring TFEB nuclear accumulation (TFEB nuclear/cytosol ratio) in BEAS-2B cells stably expressing TFEB-EGFP; type: cell-based, human; conditions: 18 hours incubation
Procedure, shortened: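 BEAS-2B cells stably expressing TFEB-EGFP (~2300–2500 per well) pre-incubated 8 hours, then exposed to serially diluted compounds (DMEM low glucose, 2% FBS) for 18 hours, PFA-fixed and DAPI-stained. Imaged nuclear (DAPI mask) vs cytosolic (expanded mask) TFEB-GFP; activity = minimal concentration raising nuclear/cytosol ratio by 25%.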

| SMILES | toxicity (compound concentration needed to induce greater than 50 percent of cell loss) (BEAS-2B cells) | efficacy (minimal compound concentration needed to increase TFEB nuclear/cytosol ratio by 25%) (TFEB) |
| --- | --- | --- |
| c1cnc2cc(-c3ccncc3)nc(Nc3ccc4nc(C5CC5)sc4c3)c2c1 [Compound 241] | + (cell loss of greater than 50 percent at a concentration that equals or is greater than 25 μM was represented as) | +++ (“+++” equals ≤1 μM) |
| c1cnc2cc(-c3ccncc3)nc(Nc3ccc4[nH]ccc4c3)c2c1 [Compound 242] | + (cell loss of greater than 50 percent at a concentration that equals or is greater than 25 μM was represented as) | +++ (“+++” equals ≤1 μM) |
| CC(C)(C)c1cc2cc(Nc3nc(-c4ccncc4)cc4ncccc34)ccc2[nH]1 [Compound 243] | + (cell loss of greater than 50 percent at a concentration that equals or is greater than 25 μM was represented as) | +++ (“+++” equals ≤1 μM) |
| c1cnc2cc(-c3ccncc3)nc(Nc3ccc4[nH]c(C5CC5)cc4c3)c2c1 [Compound 244] | + (cell loss of greater than 50 percent at a concentration that equals or is greater than 25 μM was represented as) | +++ (“+++” equals ≤1 μM) |
| Fc1cccc(Nc2nc(-c3ccncc3)cc3ncccc23)c1 [Compound 245] | + (cell loss of greater than 50 percent at a concentration that equals or is greater than 25 μM was represented as) | +++ (“+++” equals ≤1 μM) |
| Fc1cc(Nc2nc(-c3ccncc3)cc3ncccc23)cc2sc(C3CC3)nc12 [Compound 246] | + (cell loss of greater than 50 percent at a concentration that equals or is greater than 25 μM was represented as) | +++ (“+++” equals ≤1 μM) |
| c1cncc(-c2cc3ncccc3c(Nc3ccc4nc(C5CC5)sc4c3)n2)c1 [Compound 247] | + (cell loss of greater than 50 percent at a concentration that equals or is greater than 25 μM was represented as) | ++ (“++” equals between ≤25 μM and >1 μM) |
| c1ccc(-c2cc3ncccc3c(Nc3ccc4nc(C5CC5)sc4c3)n2)nc1 [Compound 248] | + (cell loss of greater than 50 percent at a concentration that equals or is greater than 25 μM was represented as) | ++ (“++” equals between ≤25 μM and >1 μM) |
| Fc1c(-c2ccncc2)nc(Nc2ccc3nc(C4CC4)sc3c2)c2cccnc12 [Compound 332] | + (cell loss of greater than 50 percent at a concentration that equals or is greater than 25 μM was represented as) | +++ (“+++” equals ≤1 μM) |
| Cc1c(-c2ccncc2)nc(Nc2ccc3nc(C4CC4)sc3c2)c2cccnc12 [Compound 333] | + (cell loss of greater than 50 percent at a concentration that equals or is greater than 25 μM was represented as) | +++ (“+++” equals ≤1 μM) |
| COc1ccc2nc(-c3ccncc3)nc(Nc3ccc4nc(C(C)C)sc4c3)c2c1 [Compound 352] | + (cell loss of greater than 50 percent at a concentration that equals or is greater than 25 μM was represented as) | ++ (“++” equals between ≤25 μM and >1 μM) |
| COc1ccc2nc(-c3ccncc3)nc(Nc3ccc4nc(C(C)C)sc4c3)c2c1 [Compound 353] | + (cell loss of greater than 50 percent at a concentration that equals or is greater than 25 μM was represented as) | ++ (“++” equals between ≤25 μM and >1 μM) |
| CC(C)c1nc2ccc(Nc3nc(-c4ccncc4)nc4ccc(F)cc34)cc2s1 [Compound 354] | + (cell loss of greater than 50 percent at a concentration that equals or is greater than 25 μM was represented as) | + (“+” equals >25 μM) |
| CC(C)c1nc2ccc(Nc3nc(-c4ccncc4)nc4cc(F)ccc34)cc2s1 [Compound 355] | + (cell loss of greater than 50 percent at a concentration that equals or is greater than 25 μM was represented as) | ++ (“++” equals between ≤25 μM and >1 μM) |
| CCc1nc2ccc(Nc3nc(-c4ccncc4)nc4ncccc34)cc2o1 [Compound 356] | + (cell loss of greater than 50 percent at a concentration that equals or is greater than 25 μM was represented as) | +++ (“+++” equals ≤1 μM) |
| FC(F)(F)c1nc2ccc(Nc3nc(-c4ccncc4)nc4ncccc34)cc2o1 [Compound 358] | + (cell loss of greater than 50 percent at a concentration that equals or is greater than 25 μM was represented as) | ++ (“++” equals between ≤25 μM and >1 μM) |
| CCCCc1nc2ccc(Nc3nc(-c4ccncc4)nc4ccccc34)cc2o1 [Compound 359] | + (cell loss of greater than 50 percent at a concentration that equals or is greater than 25 μM was represented as) | + (“+” equals >25 μM) |
| CCc1nc2ccc(Nc3nc(-c4ccncc4)nc4ccccc34)cc2o1 [Compound 360] | + (cell loss of greater than 50 percent at a concentration that equals or is greater than 25 μM was represented as) | + (“+” equals >25 μM) |
| CCc1nc2ccc(Nc3nc(-c4ccncc4)nc4cccc(OC)c34)cc2s1 [Compound 361] | + (cell loss of greater than 50 percent at a concentration that equals or is greater than 25 μM was represented as) | ++ (“++” equals between ≤25 μM and >1 μM) |
| CCc1nc2ccc(Nc3nc(-c4ccncc4)nc4c(OC)cccc34)cc2s1 [Compound 362] | + (cell loss of greater than 50 percent at a concentration that equals or is greater than 25 μM was represented as) | + (“+” equals >25 μM) |
| CCCc1nc2ccc(Nc3nc(-c4ccncc4)nc4ncccc34)cc2o1 [Compound 363] | + (cell loss of greater than 50 percent at a concentration that equals or is greater than 25 μM was represented as) | +++ (“+++” equals ≤1 μM) |
| COc1ccc2nc(-c3ccncc3)nc(Nc3ccc4nc(C(C)C)sc4c3)c2c1 [Compound 364] | + (cell loss of greater than 50 percent at a concentration that equals or is greater than 25 μM was represented as) | + (“+” equals >25 μM) |
| CCCCc1nc2ccc(Nc3nc(-c4ccncc4)nc4ncccc34)cc2o1 [Compound 365] | + (cell loss of greater than 50 percent at a concentration that equals or is greater than 25 μM was represented as) | +++ (“+++” equals ≤1 μM) |
| CCc1nc2ccc(Nc3nc(-c4ccncc4)nc4cc(F)ccc34)cc2s1 [Compound 366] | + (cell loss of greater than 50 percent at a concentration that equals or is greater than 25 μM was represented as) | + (“+” equals >25 μM) |
| CC(C)c1nc2ccc(Nc3nc(-c4ccncc4)nc4c(F)cccc34)cc2s1 [Compound 367] | + (cell loss of greater than 50 percent at a concentration that equals or is greater than 25 μM was represented as) | ++ (“++” equals between ≤25 μM and >1 μM) |
| CCc1nc2ccc(Nc3nc(-c4ccncc4)nc4cccc(F)c34)cc2s1 [Compound 368] | + (cell loss of greater than 50 percent at a concentration that equals or is greater than 25 μM was represented as) | ++ (“++” equals between ≤25 μM and >1 μM) |
| CCc1nc2ccc(Nc3nc(-c4ccncc4)nc4c(F)cccc34)cc2s1 [Compound 369] | + (cell loss of greater than 50 percent at a concentration that equals or is greater than 25 μM was represented as) | + (“+” equals >25 μM) |
| COc1ccc2c(Nc3cc(F)c4[nH]ccc4c3)nc(-c3ccncc3)nc2c1 [Compound 370] | + (cell loss of greater than 50 percent at a concentration that equals or is greater than 25 μM was represented as) | +++ (“+++” equals ≤1 μM) |
| Cc1cccc2c(Nc3ccc4ncsc4c3)nc(-c3ccncc3)nc12 [Compound 371] | + (cell loss of greater than 50 percent at a concentration that equals or is greater than 25 μM was represented as) | +++ (“+++” equals ≤1 μM) |
